Data: ChEMBL document CHEMBL1139394, “Piperidine dispiro-1,2,4-trioxane analogues” (Bioorg Med Chem Lett, 2008)
pIC50: −log10 of the molar value.

System: Plasmodium falciparum
Assay: Antimalarial activity against Plasmodium falciparum 3D7 infected human erythrocytes after 24 hrs by [3H]hypoxanthine uptake
Assay type: functional, organism-based

Row | Compound | pIC50
1 | CO[C@H]1O[C@@H]2O[C@@]3(C)CC[C@H]4[C@H](C)CC[C@@H]([C@H]1C)[C@@]24OO3 [ARTEMETHER] | 8.90
2 | O=S(=O)(c1ccccc1)N1CCC2(CC1)OCC1(OO2)C2CC3CC(C2)CC1C3 (stereo not given) | < 6.00
3 | C1CC2(CCN1)COC1(OO2)C2CC3CC(C2)CC1C3 (stereo not given) | 6.92
4 | CC(C)(C)OC(=O)N1CCC2(CC1)COC1(OO2)C2CC3CC(C2)CC1C3 (stereo not given) | 6.70
5 | CCS(=O)(=O)N1CCC2(CC1)COC1(OO2)C2CC3CC(C2)CC1C3 (stereo not given) | 6.75
6 | CC(=O)N1CCC2(CC1)COC1(OO2)C2CC3CC(C2)CC1C3 (stereo not given) | 6.74
7 | O=C(OCC1c2ccccc2-c2ccccc21)N1CCC2(CC1)COC1(OO2)C2CC3CC(C2)CC1C3 (stereo not given) | 6.76
8 | O=S(=O)(c1ccccc1)N1CCC2(CC1)OOC1(OO2)C2CC3CC(C2)CC1C3 | 7.97
9 | O=S(=O)(c1ccccc1)N1CCC2(CC1)OOC1(O2)C2CC3CC(C2)CC1C3 (stereo not given) | 8.21
10 | O=S(=O)(c1ccccc1)N1CCC2(CC1)COC1(OO2)C2CC3CC(C2)CC1C3 (stereo not given) | 6.15
